Data reported in patent US12391648B2, “Pyridyloxy thioester derivative and preparation method therefor, herbicidal composition, and application” (Qingdao Kingagroot Chemical Compound Co., Ltd., priority 2018, dated 2025).

These compounds were tested on Abutilon theophrasti (assay: Post-emergence test experiment (Table 3, 1000 g/ha)). Details: post-emergence spray, after 3 weeks, fresh weight inhibition.
Type: in vivo
Text: (§1) The activity level standard of harmful plants destruction (i. e. growth inhibition rate) is as follows: • Level 5: the growth inhibition rate is greater than 85%; • Level 4: the growth inhibition rate is equal to or greater than 60% and less than 85%; • Level 3: the growth inhibition rate is equal to or greater than 40% and less than 60%; • Level 2: the growth inhibition rate is equal to or greater than 20% and less than 40%; • Level 1: the growth inhibition rate is equal to or greater than 5% and less than 20%; • Level 0: the growth inhibition rate is less than 5%;
(§2) The above described growth inhibition rate is fresh weight inhibition rate.
(§3) Post-emergence test experiment: Monocotyledonous and dicotyledonous weed seeds and main crop seeds (i. e. wheat, corn, rice, soybean, cotton, oilseed, millet and sorghum.) were put into a plastic pot loaded with soil. Then covered with 0.5-2 cm soil, the seeds were allowed to grow in good greenhouse environment. The test plants were treated at 2-3 leaf stage 2 weeks after sowing. The test compounds of the invention were dissolved with acetone respectively, then added with tween-80, and using 1.5 liters per hectare of an emulsible concentrate of methyl oleate as a synergist, and diluted by certain amount of water to certain concentration. The solution was sprayed to the plants with a sprayer. Then the plants were cultured for 3 weeks in the greenhouse, and the experiment result of weed controlling effect after 3 weeks was listed in tables 3-4.

| SMILES | Activity level (growth inhibition rate) Abutilon theophrasti |
| --- | --- |
| CSC(=O)C(C)Oc1ncc(Cl)c(N)c1C (stereo not drawn) [Compound 21] | 5 (Level 5: the growth inhibition rate is greater than 85%) |
| CSC(=O)C(C)Oc1nc(F)c(Cl)c(NCc2ccc(C(F)(F)F)o2)c1Cl (stereo not drawn) [Compound 161] | 5 (Level 5: the growth inhibition rate is greater than 85%) |
| CC(Oc1nc(F)c(Cl)c(N)c1Cl)C(=O)Sc1ccoc1 (stereo not drawn) [Compound 120] | 5 (Level 5: the growth inhibition rate is greater than 85%) |
| CC(Oc1nc(F)c(Cl)c(N)c1Cl)C(=O)Sc1cccn1C (stereo not drawn) [Compound 122] | 5 (Level 5: the growth inhibition rate is greater than 85%) |
| CCCCCCCCCCCCSC(=O)C(C)Oc1nc(F)c(Cl)c(N)c1Cl (stereo not drawn) [Compound 143] | 5 (Level 5: the growth inhibition rate is greater than 85%) |
| CCCc1c(F)nc(OC(C)C(=O)SC)c(C2CC2)c1N (stereo not drawn) [Compound 14] | 5 (Level 5: the growth inhibition rate is greater than 85%) |
| CSC(=O)C(Cl)Oc1nc(F)c(Cl)c(N)c1Cl (stereo not drawn) [Compound 35] | 5 (Level 5: the growth inhibition rate is greater than 85%) |
| CSC(=O)C(Oc1nc(F)c(Cl)c(N)c1Cl)c1cncnc1 (stereo not drawn) [Compound 64] | 5 (Level 5: the growth inhibition rate is greater than 85%) |

What follows are compounds tested on Digitaria sanguinalis in the same assay as above. Details: post-emergence spray, after 3 weeks, fresh weight inhibition.
Type: in vivo
Text: as §1, §2, §3

| SMILES | Activity level (growth inhibition rate) Digitaria sanguinalis |
| --- | --- |
| CSC(=O)C(C)Oc1ncc(Cl)c(N)c1C (stereo not drawn) [Compound 21] | 5 (Level 5: the growth inhibition rate is greater than 85%) |
| CSC(=O)C(C)Oc1nc(F)c(Cl)c(NCc2ccc(C(F)(F)F)o2)c1Cl (stereo not drawn) [Compound 161] | 5 (Level 5: the growth inhibition rate is greater than 85%) |
| CC(Oc1nc(F)c(Cl)c(N)c1Cl)C(=O)Sc1ccoc1 (stereo not drawn) [Compound 120] | 5 (Level 5: the growth inhibition rate is greater than 85%) |
| CC(Oc1nc(F)c(Cl)c(N)c1Cl)C(=O)Sc1cccn1C (stereo not drawn) [Compound 122] | 5 (Level 5: the growth inhibition rate is greater than 85%) |
| CCCCCCCCCCCCSC(=O)C(C)Oc1nc(F)c(Cl)c(N)c1Cl (stereo not drawn) [Compound 143] | 5 (Level 5: the growth inhibition rate is greater than 85%) |
| CCCc1c(F)nc(OC(C)C(=O)SC)c(C2CC2)c1N (stereo not drawn) [Compound 14] | 5 (Level 5: the growth inhibition rate is greater than 85%) |

These compounds were tested on Galium spurium in the same assay as above. Details: post-emergence spray, after 3 weeks, fresh weight inhibition.
Type: in vivo
Text: as §1, §2, §3

| SMILES | Activity level (growth inhibition rate) Galium spurium |
| --- | --- |
| CSC(=O)C(C)Oc1ncc(Cl)c(N)c1C (stereo not drawn) [Compound 21] | 5 (Level 5: the growth inhibition rate is greater than 85%) |
| CSC(=O)C(C)Oc1nc(F)c(Cl)c(NCc2ccc(C(F)(F)F)o2)c1Cl (stereo not drawn) [Compound 161] | 5 (Level 5: the growth inhibition rate is greater than 85%) |
| CC(Oc1nc(F)c(Cl)c(N)c1Cl)C(=O)Sc1ccoc1 (stereo not drawn) [Compound 120] | 5 (Level 5: the growth inhibition rate is greater than 85%) |
| CC(Oc1nc(F)c(Cl)c(N)c1Cl)C(=O)Sc1cccn1C (stereo not drawn) [Compound 122] | 5 (Level 5: the growth inhibition rate is greater than 85%) |
| CCCCCCCCCCCCSC(=O)C(C)Oc1nc(F)c(Cl)c(N)c1Cl (stereo not drawn) [Compound 143] | 5 (Level 5: the growth inhibition rate is greater than 85%) |
| CCCc1c(F)nc(OC(C)C(=O)SC)c(C2CC2)c1N (stereo not drawn) [Compound 14] | 5 (Level 5: the growth inhibition rate is greater than 85%) |
| CSC(=O)C(Cl)Oc1nc(F)c(Cl)c(N)c1Cl (stereo not drawn) [Compound 35] | 5 (Level 5: the growth inhibition rate is greater than 85%) |
| CSC(=O)C(Oc1nc(F)c(Cl)c(N)c1Cl)c1cncnc1 (stereo not drawn) [Compound 64] | 5 (Level 5: the growth inhibition rate is greater than 85%) |

Each compound was assayed on Leptochloa chinensis in the same assay as above. Details: post-emergence spray, after 3 weeks, fresh weight inhibition.
Type: in vivo
Text: as §1, §2, §3

| SMILES | Activity level (growth inhibition rate) Leptochloa chinensis |
| --- | --- |
| CSC(=O)C(C)Oc1ncc(Cl)c(N)c1C (stereo not drawn) [Compound 21] | 5 (Level 5: the growth inhibition rate is greater than 85%) |
| CSC(=O)C(C)Oc1nc(F)c(Cl)c(NCc2ccc(C(F)(F)F)o2)c1Cl (stereo not drawn) [Compound 161] | 5 (Level 5: the growth inhibition rate is greater than 85%) |
| CC(Oc1nc(F)c(Cl)c(N)c1Cl)C(=O)Sc1ccoc1 (stereo not drawn) [Compound 120] | 5 (Level 5: the growth inhibition rate is greater than 85%) |
| CC(Oc1nc(F)c(Cl)c(N)c1Cl)C(=O)Sc1cccn1C (stereo not drawn) [Compound 122] | 5 (Level 5: the growth inhibition rate is greater than 85%) |
| CCCCCCCCCCCCSC(=O)C(C)Oc1nc(F)c(Cl)c(N)c1Cl (stereo not drawn) [Compound 143] | 5 (Level 5: the growth inhibition rate is greater than 85%) |
| CCCc1c(F)nc(OC(C)C(=O)SC)c(C2CC2)c1N (stereo not drawn) [Compound 14] | 5 (Level 5: the growth inhibition rate is greater than 85%) |

The compounds below were run on Monochoria vaginalis in the same assay as above. Details: post-emergence spray, after 3 weeks, fresh weight inhibition.
Type: in vivo
Text: as §1, §2, §3

| SMILES | Activity level (growth inhibition rate) Monochoria Vaginalis |
| --- | --- |
| CSC(=O)C(C)Oc1ncc(Cl)c(N)c1C (stereo not drawn) [Compound 21] | 5 (Level 5: the growth inhibition rate is greater than 85%) |
| CSC(=O)C(C)Oc1nc(F)c(Cl)c(NCc2ccc(C(F)(F)F)o2)c1Cl (stereo not drawn) [Compound 161] | 5 (Level 5: the growth inhibition rate is greater than 85%) |
| CC(Oc1nc(F)c(Cl)c(N)c1Cl)C(=O)Sc1ccoc1 (stereo not drawn) [Compound 120] | 5 (Level 5: the growth inhibition rate is greater than 85%) |
| CC(Oc1nc(F)c(Cl)c(N)c1Cl)C(=O)Sc1cccn1C (stereo not drawn) [Compound 122] | 5 (Level 5: the growth inhibition rate is greater than 85%) |
| CCCCCCCCCCCCSC(=O)C(C)Oc1nc(F)c(Cl)c(N)c1Cl (stereo not drawn) [Compound 143] | 5 (Level 5: the growth inhibition rate is greater than 85%) |
| CCCc1c(F)nc(OC(C)C(=O)SC)c(C2CC2)c1N (stereo not drawn) [Compound 14] | 5 (Level 5: the growth inhibition rate is greater than 85%) |
| CSC(=O)C(Cl)Oc1nc(F)c(Cl)c(N)c1Cl (stereo not drawn) [Compound 35] | 5 (Level 5: the growth inhibition rate is greater than 85%) |
| CSC(=O)C(Oc1nc(F)c(Cl)c(N)c1Cl)c1cncnc1 (stereo not drawn) [Compound 64] | 5 (Level 5: the growth inhibition rate is greater than 85%) |

What follows are compounds tested on Setaria viridis in the same assay as above. Details: post-emergence spray, after 3 weeks, fresh weight inhibition.
Type: in vivo
Text: as §1, §2, §3

| SMILES | Activity level (growth inhibition rate) Setaria viridis |
| --- | --- |
| CSC(=O)C(C)Oc1ncc(Cl)c(N)c1C (stereo not drawn) [Compound 21] | 5 (Level 5: the growth inhibition rate is greater than 85%) |
| CSC(=O)C(C)Oc1nc(F)c(Cl)c(NCc2ccc(C(F)(F)F)o2)c1Cl (stereo not drawn) [Compound 161] | 5 (Level 5: the growth inhibition rate is greater than 85%) |
| CC(Oc1nc(F)c(Cl)c(N)c1Cl)C(=O)Sc1ccoc1 (stereo not drawn) [Compound 120] | 5 (Level 5: the growth inhibition rate is greater than 85%) |
| CC(Oc1nc(F)c(Cl)c(N)c1Cl)C(=O)Sc1cccn1C (stereo not drawn) [Compound 122] | 5 (Level 5: the growth inhibition rate is greater than 85%) |
| CCCCCCCCCCCCSC(=O)C(C)Oc1nc(F)c(Cl)c(N)c1Cl (stereo not drawn) [Compound 143] | 5 (Level 5: the growth inhibition rate is greater than 85%) |
| CCCc1c(F)nc(OC(C)C(=O)SC)c(C2CC2)c1N (stereo not drawn) [Compound 14] | 5 (Level 5: the growth inhibition rate is greater than 85%) |
